The nature of this data set: FATZO mouse NASH model on western diet plus fructose (Example 8): body and liver weight, liver histology, NAS, fibrosis. Format: in vivo, FATZO mice. The text has this:
NASH was induced in 60 male FATZO mice by a western diet (Research Diet #D12079B; fat 40% kcal, protein 17% kcal, carbohydrate 43% kcal) supplemented with 5% fructose in the drinking water (WDF) during a 16 week induction phase. Diets and water were available ad libitum. Littermate control male FATZO mice fed with a control diet (n=6, Purina #5008; fat 17% kcal, protein 27% kcal, carbohydrate 56% kcal) and sterile water were set up for control purpose. Mice were housed in plastic cages with microisolator. Sterilized bedding was replaced once a week. Mice were housed three per cage and maintained on a twelve hour light cycle throughout study duration. Room temperature was monitored daily and maintained at 22-25° C. Body weight was recorded every week during the induction phase.
Following 16 weeks diet induction, 6 mice remained on control diet (group 1, Control) while 60 induced mice were randomized on body weight and plasma glucose (fed) for assignment to the following treatments. FATZO mice were administered with test articles starting at 16 weeks post western diet NASH induction for 4 weeks. Test articles were administered by oral gavage. Animals were euthanized at 20 weeks post western diet NASH induction, and tissues were harvested for analysis.
[…], […]+G, LRQNAC, and OCA (Advanced ChemBlocks, Inc.), incipient, and water for irrigation were provided by Axcella Health, Inc. 0.5% Methylcellulosewas provided by CrownBio, Inc. Dosing solutions were prepared according to Appendix 1. […] Obeticholic acid (OCA) was suspended in 0.5% methylcellulose in water for irrigation. All test articles were stored refrigerated. TA compounds were provided in frozen powder form by the sponsor. Dosing was continued for 4 weeks.
[…], […]+G, LRQNAC, OCA and Vehicle were administered by oral gavage at a volume of 10 mL/kg throughout the study. Dosages were calculated by daily body weight. […], […]+G, LRQNAC, and Vehicle were administered twice per day (BID), while OCA was administered once a day (QD) in the morning. Mice receiving OCA once per day (QD), and one vehicle QD. Doses were administered by oral gavage at 0700 and 1800 by oral gavage for 4 weeks.
The viability, clinical signs and behavior were monitored daily. Body weight was recorded daily during the dosing period. Blood samples were collected weekly in the AM (0700) via tail clip for glucose measurement (StatStrip glucometer).
Animals were anesthetized with CO2 inhalation and exsanguinated via cardiac puncture for euthanasia. Terminal blood samples (K2EDTA) were obtained by cardiac puncture in anesthetized animals at termination. Samples were provided frozen to Axcella Health. Organ weights (total liver, gonadal fat pads) were recorded. Pancreas, and small intestine and gonadal fat pads were fixed in 10% Buffered Formalin and prepared as directed in protocol. A section of small intestine, gonadal fat pad and liver were also snap frozen in liquid nitrogen and shipped to the sponsor.
The liver tissues were fixed in Bouin's solution at 4° C. for 24 hours followed by baths of standard concentrations of alcohol then xylene to prepare the tissues for paraffin embedding. After being embedded in paraffin and cooled, five-micron sections were cut and stained for routine H&E and Picric Sirius Red. A section of both right and left lobes of the livers were frozen in OCT for analysis of lipid content with Oil-Red-) staining. The Aperio whole slide digital imaging system (Scan Scope CS, Vista, Calif.) was used for imaging. All slides were imaged at 20×. The scan time ranged from 1.5 minutes to a maximum time of 2.25 minutes. The whole images were housed and stored in their Spectrum software system and images were shot from the whole slides.
The livers were evaluated using the NASH liver criteria for scoring. In this mouse study, one cross section of liver for each case was analyzed with the NASH score system. […]

[1] abbreviates: FATZO mice on WDF, 4 weeks, LIVRQNAC+G 3885 mg/kg, LRQNAC 2469 mg/kg BID, OCA 30 mg/kg/day QD.
[2] abbreviates: score 0-3, WDF fed FATZO mice, oral gavage 4 weeks, LIVRQNAC+G and LRQNAC leucine-matched BID, OCA QD.

Structures are written as SMILES.

Regarding `CC[C@H]1[C@@H](O)[C@@H]2[C@H](CC[C@]3(C)[C@@H]([C@H](C)CCC(=O)O)CC[C@@H]23)[C@@]2(C)CC[C@@H](O)C[C@@H]12` [OCA, 6α-ethyl-chenodeoxycholic acid], where the note is “FATZO mice on WDF, 4 weeks, vs vehicle, LIVRQNAC 1500 or 3000 mg/kg, LIVRQNAC+G 3885 mg/kg, LRQNAC 2469 mg/kg, OCA 30 mg/kg/day”, the “NAFLD activity score (NAS)” value is “no significant effect”. Besides, under setting [1], the “Body weight change compared to baseline” value is −3.9±1.5% and the “Liver weight (% body weight)” value is given as 6.81±0.2 % body weight. For the same compound, the “Liver Pathology NAS” value (WDF fed FATZO mice, oral gavage 4 weeks, LIVRQNAC+G and LRQNAC leucine-matched BID, OCA QD) was 3.72 ± 0.147. Also, for the setting “score 0-2, WDF fed FATZO mice, oral gavage 4 weeks, LIVRQNAC+G and LRQNAC leucine-matched BID, OCA QD”, the “Liver Pathology Ballooning” value amounted to 0.94 ± 0.056. Also, under setting [2], the “Liver Pathology Inflammation” value came to 1.0 ± 0.0 and the “Liver Pathology Steatosis” value is 1.78 ± 0.147.

The record behind these values is US20210260010A1, “COMPOSITIONS AND METHODS FOR THE REDUCTION OR TREATMENT OF INFLAMMATION” (AXCELLA HEALTH INC., priority 2018, published 2021).
